{
  "source": "ChEMBL document CHEMBL4813979",
  "key": {"Mus musculus [1]": {"system": "Mus musculus", "test": "Anti-colitis activity against DSS-induced BALB/c mouse model of subchronic relapsing colitis assessed as decrease in colon weight to length ratio at 100 mg/kg/day, po administered for 7 days in second week during 2 weeks DSS challenge and measured at the end of 2nd week", "format": "functional, organism-based", "settings": "time 7.0 day"}, "Mus musculus [2]": {"system": "Mus musculus", "test": "Anti-colitis activity against DSS-induced BALB/c mouse model of subchronic relapsing colitis assessed as increase in body weight at 100 mg/kg/day, po administered for 7 days in second week during 2 weeks DSS challenge and measured at the end of 2nd week", "format": "functional, organism-based", "settings": "time 7.0 day"}, "Mus musculus [3]": {"system": "Mus musculus", "test": "Anti-colitis activity against DSS-induced BALB/c mouse model of subchronic relapsing colitis assessed as increase in softening of feces at 100 mg/kg/day, po administered for 7 days in second week during 2 weeks DSS challenge and measured at the end of 2nd week", "format": "functional, organism-based", "settings": "time 7.0 day"}, "Mus musculus [4]": {"system": "Mus musculus", "test": "Anti-colitis activity against DSS-induced BALB/c mouse model of subchronic relapsing colitis assessed as effect on colon length at 100 mg/kg/day, po administered for 7 days in second week during 2 weeks DSS challenge and measured at the end of 2nd week", "format": "functional, organism-based", "settings": "time 7.0 day"}, "Mus musculus [5]": {"system": "Mus musculus", "test": "Anti-colitis activity against DSS-induced BALB/c mouse model of subchronic relapsing colitis assessed as reduction in fecal blood at 100 mg/kg/day, po administered for 7 days in second week during 2 weeks DSS challenge and measured at the end of 2nd week", "format": "functional, organism-based", "settings": "time 7.0 day"}, "[6]": {"target": "Glycogen synthase kinase-3 beta (Mus musculus) (UniProt Q9WV60)", "sequence (Q9WV60 whole entry, looked up)": "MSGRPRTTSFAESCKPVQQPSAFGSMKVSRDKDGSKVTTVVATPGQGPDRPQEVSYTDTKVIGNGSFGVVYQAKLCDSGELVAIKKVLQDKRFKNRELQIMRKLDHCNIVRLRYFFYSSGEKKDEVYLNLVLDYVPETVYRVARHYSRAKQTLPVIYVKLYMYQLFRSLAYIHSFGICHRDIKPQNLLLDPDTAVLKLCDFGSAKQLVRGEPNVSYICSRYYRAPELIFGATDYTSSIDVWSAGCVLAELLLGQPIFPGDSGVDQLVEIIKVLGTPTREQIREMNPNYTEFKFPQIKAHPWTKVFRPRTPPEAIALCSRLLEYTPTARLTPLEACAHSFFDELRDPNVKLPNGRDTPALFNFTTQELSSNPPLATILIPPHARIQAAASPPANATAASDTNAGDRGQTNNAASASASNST", "test": "Inhibition of GSK3-beta in mouse J774.1 cells assessed as reduction in LPS/IFN-gamma-induced NF-kappaB expression at 10 uM measured within 15 mins by Western blot analysis", "format": "cell-based"}, "Mus musculus [7]": {"system": "Mus musculus", "test": "Anti-colitis activity against DSS-induced BALB/c mouse model of subchronic relapsing colitis assessed as reduction in fecal blood at 100 mg/kg/day, ip administered on days 1 and 3 of second week during 2 weeks DSS challenge and measured at the end of 2nd week", "format": "functional, organism-based", "settings": "time 1.0 weeks"}, "Mus musculus [8]": {"system": "Mus musculus", "test": "Anti-colitis activity against DSS-induced BALB/c mouse model of subchronic relapsing colitis assessed as increase in softening of feces at 100 mg/kg/day, ip administered on days 1 and 3 of second week during 2 weeks DSS challenge and measured at the end of 2nd week", "format": "functional, organism-based", "settings": "time 1.0 weeks"}, "Mus musculus [9]": {"system": "Mus musculus", "test": "Anti-colitis activity against DSS-induced BALB/c mouse model of subchronic relapsing colitis assessed as effect on colon length at 100 mg/kg/day, ip administered on days 1 and 3 of second week during 2 weeks DSS challenge and measured at the end of 2nd week", "format": "functional, organism-based", "settings": "time 1.0 weeks"}, "Mus musculus [10]": {"system": "Mus musculus", "test": "Anti-colitis activity against DSS-induced BALB/c mouse model of subchronic relapsing colitis assessed as increase in body weight at 100 mg/kg/day, ip administered on days 1 and 3 of second week during 2 weeks DSS challenge and measured at the end of 2nd week", "format": "functional, organism-based", "settings": "time 1.0 weeks"}},
  "note": "Activity calls are given as the source filed them. No cut-off for these calls is given here.",
  "data": [
    {"smiles": "O=C(O)c1cc(/N=N/c2ccc(S(=O)(=O)Nc3ccccn3)cc2)ccc1O", "values": [
      {"measurement": "Activity", "setting": "Mus musculus [1]", "result": "Active"},
      {"measurement": "Activity", "setting": "Mus musculus [2]", "result": "inactive"},
      {"measurement": "Activity", "setting": "Mus musculus [3]", "result": "Active"},
      {"measurement": "Activity", "setting": "Mus musculus [4]", "result": "inactive"},
      {"measurement": "Activity", "setting": "Mus musculus [5]", "result": "Active"}
    ]},
    {"smiles": "C[S+]([O-])CCCCCCN=C=S", "note": "(stereo not given)", "values": [
      {"measurement": "inhibition", "setting": "[6]", "result": "Active"}
    ]},
    {"smiles": "S=C(S)N1CCCC1", "values": [
      {"measurement": "Activity", "setting": "Mus musculus [7]", "result": "Active"},
      {"measurement": "Activity", "setting": "Mus musculus [8]", "result": "Active"},
      {"measurement": "Activity", "setting": "Mus musculus [9]", "result": "inactive"},
      {"measurement": "Activity", "setting": "Mus musculus [10]", "result": "Active"}
    ]}
  ]
}
